# Test results as given in patent US20070155660A1, “Inhibition of voluntary ethanol consumption with selective melanocortin 4-receptor agonists” (priority 2003, published 2007).
# Numbered stars: 1 amine (or outer) side, 2 acyl side, 3 side chain; on linkers, the order of the positions; unused ones are H or OH. Bridge positions count the residues as written; N and C are the ends. Square brackets hold non-standard residues; d marks the D form. Peptide text beside a SMILES is read from it. ξ: configuration not given here. dPhe(4-Cl) = N[C@H](Cc1ccc(Cl)cc1)C(=O)O; 2Nal = N[C@@H](Cc1ccc2ccccc2c1)C(=O)O; Suc = O=C(CCC(=O)[*:2])[*:1]; ξE = NC(CCC(=O)O)C(=O)O; ξDab = NCCC(N)C(=O)O; ξK = NCCCCC(N)C(=O)O; ξDap = NCC(N)C(=O)O; Ava = NCCCCC(=O)O; GABA = NCCCC(=O)O
# Columns and labels:
# Set-up in all cases: expressed in transfected cells; host or cells: Chinese hamster ovary (CHO) cells
# MC4R [1] = biological target: T1, MC4R (Homo sapiens, UniProt P32245); assay: Competitive binding assay, [125I]-NDP-α-MSH, CHO cell membranes; settings: for Selectivity Binding IC50 3R/4R: ratio of IC50 hMC-3R / hMC-4R; for Selectivity Binding IC50 5R/4R: ratio of IC50 hMC-5R / hMC-4R
# T1 sequence (P32245 whole entry): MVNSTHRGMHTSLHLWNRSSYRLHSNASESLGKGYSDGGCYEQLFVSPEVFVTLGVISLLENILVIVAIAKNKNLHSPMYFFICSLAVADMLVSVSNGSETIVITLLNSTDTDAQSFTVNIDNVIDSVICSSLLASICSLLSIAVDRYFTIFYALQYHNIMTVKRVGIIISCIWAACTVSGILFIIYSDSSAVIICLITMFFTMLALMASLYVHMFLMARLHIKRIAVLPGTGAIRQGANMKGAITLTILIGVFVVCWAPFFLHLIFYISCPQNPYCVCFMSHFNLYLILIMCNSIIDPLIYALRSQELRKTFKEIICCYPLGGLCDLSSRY
# Description: The peptides of the present invention were evaluated for […] in receptor binding assay. Crude membrane preparations were obtained from Chinese hamster ovary cells expressing human MC3, MC4, and MC5 receptors. Cells were rinsed with phosphate-buffered saline (PBS) lacking CaCl2 or MgCl2 (Life Technologies, Gaithersburg, Md., USA), and then detached with enzyme-free dissociation media (Specialty Media, Lavellette, N.J., USA). Cells were pelleted at 2800×g for 10 minutes and resuspended in membrane buffer (20 mM Tris, pH 7.2, 5 mM ethylenediaminetetraacetic acid) with 5 μg/ml leupeptin, 5 μg/ml aprotinin, 40 μg/ml bacitracin, and 25 μg/m pefabloc (Boehringer Mannheim). The cells were […] with 10 strokes by using a motor-driven Teflon-coated pestle in a glass homogenizer at low speed. The resulting cell suspension was centrifuged at 4100×g, 4° C., for 20 minutes. The pellet was resuspended in fresh membrane buffer with protease inhibitors, aliquoted, snap-frozen in liquid nitrogen, and stored at −80° C. The resulting crude membranes were titrated to determine the optimal level necessary for performing binding studies. Results
# Binding reactions (total volume=[…]) contained MBB (50 mM Tris, pH 7.2, 2 mM CaCl2, 1 mM MgCl2), 0.1% bovine serum albumin, crude membranes prepared from cells expressing human MC3, MC4, or MC5 receptor, 200 pM of [125I]-NDP-α-MSH (Amersham, Arlington Heighs, Ill., USA), and increasing concentrations of unlabeled test compounds dissolved in dimethylsulfoxide (final concentration=2%). Reactions were incubated for 1 hour without shaking and then filtered through 96-well filter plates (Packard), presoaked in 1% polyethyleneimine. Filters were washed 3 times with TNE buffer (50 mM Tris, pH 7.4, 5 mM ethylenediaminetetraacetic acid, 150 mM NaCl), dried and counted by using Microscint-20 in a Topcount scintillation counter (Packard). Nonspecific binding was determined in the presence of 2 μm of unlabeled NDP-α-MSH (Peninsula Laboratories). Active peptides were evaluated in three independent experiments.
# MC4R [2] = biological target: T1, MC4R; assay: cAMP assay in CHO cells expressing a human melanocortin receptor; format: cell-based; settings: for Selectivity cAMP EC50 3R/4R: ratio of EC50 hMC-3R / hMC-4R; for Selectivity cAMP EC50 5R/4R: ratio of EC50 hMC-5R / hMC-4R
# Description: (§1) Chinese hamster ovary cells expressing a human melanocortin receptor were rinsed with calcium-and magnesium-free PBS (Life Technologies), and detached from the tissue culture flasks by 5-minutes incubation with enzyme-free dissociation buffer (S-014-B, Specialty Media). Cells were collected by centrifugation and resuspended in Earle's balanced salt solution (Life Technologies) with addition of 10 mM 4-(2-hydroxyethyl)-1-piperazineethanesulfonic acid (Hepes) buffer, pH 7.5, 5 mM MgCl2, 1 mM glutamine, and 1 mg/ml bovine serum albumin to concentration of 1-5×10^6 cells/ml. Subsequently, cells were counted and the cell suspension was treated with the phosphodiesterase inhibitor 3-isobutyl-1-methylxanthine (to concentration of 0.6 mM).
# (§2) A test compound was dissolved in dimethyl sulfoxide (DMSO, 10^−3 to 10^−8 M), diluted with buffer and 0.1 volume of the solution was added to 0.9 volumes of the cell suspension (1 to 5×10^5 cells); final concentration of DMSO was 1%. After 45 minutes at room temperature, cells were lysed by incubation at 100° C. for 5 minutes to release accumulated cAMP. Accumulation of cAMP was measured in an aliquot of the cell lysate with the Amersham (Arlington Heights, Ill.) cAMP detection assay kit (RPA556). The amount of cAMP produced in response to a tested compound was compared to the amount of cAMP produced in response to α-MSH, defined as a 100% agonist. All active peptides were characterized in three independent experiments.
# MC5R = MC5R (Homo sapiens, UniProt P33032); assay: as above; format: cell-based; settings: @ 5 (concentration unit not given); cAMP relative to α-MSH defined as 100% agonist
# Chain of MC5R (P33032 whole entry): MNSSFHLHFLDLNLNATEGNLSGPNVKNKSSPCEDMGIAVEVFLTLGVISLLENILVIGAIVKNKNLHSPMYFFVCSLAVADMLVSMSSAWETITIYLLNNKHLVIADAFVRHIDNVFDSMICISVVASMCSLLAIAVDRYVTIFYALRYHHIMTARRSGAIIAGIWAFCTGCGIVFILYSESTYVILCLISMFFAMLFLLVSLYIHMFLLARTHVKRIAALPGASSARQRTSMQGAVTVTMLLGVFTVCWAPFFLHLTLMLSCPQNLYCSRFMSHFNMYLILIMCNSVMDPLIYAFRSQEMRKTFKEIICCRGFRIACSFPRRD
# Description: as §1, §2
SMILES,Selectivity Binding IC50 3R/4R (MC4R [1]),Selectivity Binding IC50 5R/4R (MC4R [1]),Selectivity cAMP EC50 3R/4R (MC4R [2]),Selectivity cAMP EC50 5R/4R (MC4R [2]),"cAMP Assay hMC-5R, % @ 5 (MC5R) [% @ 5]"
N=C(N)NCCC[C@@H]1NC(=O)[C@@H](Cc2ccccc2)NC(=O)[C@H](Cc2c[nH]cn2)NC(=O)CCC(=O)NCCCCC(C(N)=O)NC(=O)[C@H](Cc2c[nH]c3ccccc23)NC1=O (some centres unmarked) [Example 1] (H[dF]RW[ξK]-NH2; linker N-5 via Suc),16.7,124,33,357,–
N=C(N)NCCC[C@@H]1NC(=O)[C@@H](Cc2ccccc2)NC(=O)[C@H](Cc2c[nH]cn2)NC(=O)CCC(=O)NCCC(C(N)=O)NC(=O)[C@H](Cc2c[nH]c3ccccc23)NC1=O (some centres unmarked) [Example 2] (H[dF]RW[ξDab]-NH2; linker N-5 via Suc),51.3,205,83,758,–
N=C(N)NCCC[C@@H]1NC(=O)[C@@H](Cc2ccccc2)NC(=O)[C@H](Cc2c[nH]cn2)NC(=O)CCC(=O)NCC(C(N)=O)NC(=O)[C@H](Cc2c[nH]c3ccccc23)NC1=O (some centres unmarked) [Example 3] (H[dF]RW[ξDap]-NH2; linker N-5 via Suc),22.5,50.7,17.8,–,12
N=C(N)NCCC[C@@H]1NC(=O)[C@@H](Cc2ccc(Cl)cc2)NC(=O)[C@H](Cc2c[nH]cn2)NC(=O)CCC(=O)NCCCCC(C(N)=O)NC(=O)[C@H](Cc2c[nH]c3ccccc23)NC1=O (some centres unmarked) [Example 4] (H[dPhe(4-Cl)]RW[ξK]-NH2; linker N-5 via Suc),10,54,54,229.7,–
N=C(N)NCCC[C@@H]1NC(=O)[C@@H](Cc2ccccc2)NC(=O)[C@H](Cc2c[nH]cn2)NC(=O)CCC(=O)NCCCCC(C(N)=O)NC(=O)[C@H](Cc2ccc3ccccc3c2)NC1=O (some centres unmarked) [Example 5] (H[dF]R[2Nal][ξK]-NH2; linker N-5 via Suc),33.85,1538,97.3,1351.3,–
N=C(N)NCCC[C@@H]1NC(=O)[C@@H](Cc2ccccc2)NC(=O)[C@H](Cc2c[nH]cn2)NC(=O)CCCCNC(=O)CCC(C(N)=O)NC(=O)[C@H](Cc2c[nH]c3ccccc23)NC1=O (some centres unmarked) [Example 6] ([Ava]H[dF]RW[ξE]-NH2; lactam N-6),48,750,70.4,703.7,–
N=C(N)NCCC[C@@H]1NC(=O)[C@@H](Cc2ccccc2)NC(=O)[C@H](Cc2c[nH]cn2)NC(=O)CCCNC(=O)CCC(C(N)=O)NC(=O)[C@H](Cc2c[nH]c3ccccc23)NC1=O (some centres unmarked) [Example 7] ([GABA]H[dF]RW[ξE]-NH2; lactam N-6),44,121.9,54.39,877,–
N=C(N)NCCC[C@@H]1NC(=O)[C@@H](Cc2ccccc2)NC(=O)[C@H](Cc2c[nH]cn2)NC(=O)CNC(=O)CCC(C(N)=O)NC(=O)[C@H](Cc2c[nH]c3ccccc23)NC1=O (some centres unmarked) [Example 9] (GH[dF]RW[ξE]-NH2; lactam N-6),3.45,3.45,62.86,–,15
